Measurements taken from patent publication US11542282B2, “Low affinity poly(AD-ribose) polymerase 1 dependent cytotoxic agents” (THE TRUSTEES OF THE UNIVERSITY OF PENNSYLVANIA, priority 2018, dated 2023).

Key:
MEF WT cells = experiment: Cell viability assay in MEF WT cells; type: cell-based, mouse; conditions: NA = Not applicable, no cell death observed
Procedure: (§1) Genetically engineered PARP-1 and PARP-2 double knockout mouse embryonic fibroblast (MEF) were used for cell viability studies with wildtype control.
(§2) Cell viability assays were carried out using four cell lines including OVCAR8, MEF wt, MEF PARP-1 (−/−) KO, and MEF PARP-2 (−/−) KO as described in Makvandi cited above. Briefly, cells were seeded in black wall clear bottom 96-well plates at concentrations of 1,000 cells/well. […] Plates were read on an Enspire multimode plate reader (Perkin Elmer). Data was normalized to percent survival at each concentration evaluated by diving the luminescent signal in treated wells vs. the average of vehicle controls. Experiments were repeated three times and all compounds were assayed during each experiment.
(§3) This isogenic model was selected due to the highly conserved nature of the PARP catalytic domain, all-owing investigation in enzyme specificity.

PARP-1 = PARP-1 (Homo sapiens, UniProt P09874); experiment: PARP-1 radioligand binding in live OVCAR8 cells ([125I]KX1 competition); conditions: for IC50: radioligand binding in OVCAR8 cells; for enzyme affinity in contrast to respective boc-protected analogue: free-amine derivatives
Procedure: Cells were cultured using standard techniques at 37° C. with 5% CO2 and 15% 02. […] Genetically engineered PARP-1 and PARP-2 double knockout mouse embryonic fibroblast (MEF) were used for cell viability studies with wildtype control. All cells were cultured in RPMI 1640 with 10% FBS and 1% penicillin/streptomycin.
The affinity of each compound for the PARP-1 enzyme was evaluated using a radioligand binding method described in Makvandi, A radiotracer strategy to quantify PARP-1 expression in vivo provides a biomarker that can enable patient selection for PARP inhibitor therapy. Cancer Research 2016. Briefly, OVCAR8 ovarian cancer cells were seeded in 96-well Stripwell plates at a density of 40,000 cells/well 24 hrs prior to the study. On the day of study, compounds were diluted in RPMI to concentrations of 100 μM-0.064 nM. […] Reactions were allowed to equilibrate for 1 hr and were then washed with 200 μL of PBS. Wells were separated and counted on an automatic Wizard gamma counter (Perkin Elmer, Waltham Mass.). […] Experiments were repeated three times with adjusting dose concentrations to increase accuracy of IC50 values.
Compounds 10-17 were evaluated for PARP-1 inhibition using a radioligand binding assay protocol with BRCA1 methylated ovarian cancer cells (OVCAR8) as described above. See, Table 3. […] Compared to 1a, oxaazaspiro analogue 1b performed slightly better with scaffold 10b displaying a PARP-1 binding value of 24.9 nM.

[1] = test system: MEF PARP-2 (-/-) KO cells; experiment: Cell viability assay in MEF PARP-2 KO-/- cells; type: cell-based, mouse; conditions: NA = Not applicable, no cell death observed
Procedure: as §1, §2, §3
The cell cytotoxicity profile of these selected compounds in MEF PARP-2 KO−/− cell lines was then analyzed as described above.

PARP-1, sequence (P09874 whole entry): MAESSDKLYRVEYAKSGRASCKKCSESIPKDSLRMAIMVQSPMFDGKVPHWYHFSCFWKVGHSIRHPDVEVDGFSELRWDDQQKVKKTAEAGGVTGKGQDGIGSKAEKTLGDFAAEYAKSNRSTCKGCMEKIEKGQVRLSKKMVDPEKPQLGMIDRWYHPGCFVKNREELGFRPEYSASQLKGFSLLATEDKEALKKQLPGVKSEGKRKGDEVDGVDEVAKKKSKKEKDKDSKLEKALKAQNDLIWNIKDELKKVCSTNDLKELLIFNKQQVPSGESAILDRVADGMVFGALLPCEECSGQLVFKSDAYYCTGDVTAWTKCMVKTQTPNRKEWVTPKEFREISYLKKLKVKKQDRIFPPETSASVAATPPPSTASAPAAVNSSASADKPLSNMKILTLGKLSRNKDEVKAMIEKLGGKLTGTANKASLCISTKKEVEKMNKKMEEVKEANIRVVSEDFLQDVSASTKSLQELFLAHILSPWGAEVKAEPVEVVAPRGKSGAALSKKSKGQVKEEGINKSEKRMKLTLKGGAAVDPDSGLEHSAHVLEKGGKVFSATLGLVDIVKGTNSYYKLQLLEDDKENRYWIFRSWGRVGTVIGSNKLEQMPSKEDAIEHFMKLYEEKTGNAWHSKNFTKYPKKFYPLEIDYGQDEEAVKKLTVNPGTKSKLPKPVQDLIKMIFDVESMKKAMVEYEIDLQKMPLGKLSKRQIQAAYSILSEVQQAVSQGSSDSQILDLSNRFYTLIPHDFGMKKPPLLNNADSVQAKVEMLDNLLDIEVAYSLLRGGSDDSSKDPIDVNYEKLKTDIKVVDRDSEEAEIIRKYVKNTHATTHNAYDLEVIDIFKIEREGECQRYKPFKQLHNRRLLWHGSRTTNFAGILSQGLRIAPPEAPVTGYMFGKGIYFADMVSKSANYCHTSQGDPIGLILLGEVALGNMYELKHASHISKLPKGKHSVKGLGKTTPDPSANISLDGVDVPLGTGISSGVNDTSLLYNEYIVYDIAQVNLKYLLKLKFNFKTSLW

| SMILES | EC50 (PARP-1) [µM] | EC50 (MEF WT cells; Mus musculus) [µM] | EC50 ([1]; Mus musculus) [µM] | other results |
| --- | --- | --- | --- | --- |
| O=C(c1cc(Cc2n[nH]c(=O)c3ccccc23)ccc1F)N1CC2(CNC2)C1 [Compound 10d, 4-(4-Fluoro-3-(2,6-diazaspiro[3.3]heptane-2-carbonyl)benzyl)phthalazin-1(2H)-one] | 2.39 | – | – | – |
| O=C(c1cc(Cc2n[nH]c(=O)c3ccccc23)ccc1F)N1CCC12CCC2 [Compound 11a, 4-(4-Fluoro-3-(I-azaspiro[3.3]heptane-1-carbonyl)benzyl)phthalazin-1(2H)-one] | – | – | – | EC50 (MEF WT cells): 48 µM; EC50 [1]: 58.3 µM |
| CC(C)(C)OC(=O)N1CC2(CCN2C(=O)c2cc(Cc3n[nH]c(=O)c4ccccc34)ccc2F)C1 [Compound 11b, Tert-butyl 1-(2-fluoro-5-((4-oxo-3,4-dihydrophthalazin-1-yl)methyl)benzoyl)-1,6-diazaspiro[3.3]heptane-6-carboxylate] | – | 42.9 | 35.8 | – |
| O=C(c1cc(Cc2n[nH]c(=O)c3ccccc23)ccc1F)N1CCC12CNC2 [Compound 11c, 4-(4-Fluoro-3-(1,6-diazaspiro[3.3]heptane-1-carbonyl)benzyl)phthalazin-1(2H)-one] | – | – | – | enzyme affinity in contrast to respective boc-protected analogue (PARP-1): slight increase in enzyme affinity |
| O=C(C1CC1)N1CC2(CCN2C(=O)c2cc(Cc3n[nH]c(=O)c4ccccc34)ccc2F)C1 [Compound 11d, 4-(3-(6-(Cyclopropanecarbonyl)-1,6-diazaspiro[3.3]heptane-1-carbonyl)-4-fluorobenzyl)phthalazin-1(2H)-one] | – | 53.2 | 46.7 | – |
| O=C(c1cc(Cc2n[nH]c(=O)c3ccccc23)ccc1F)N1CC2(CCNCC2)C1 [Compound 12c, 4-(4-Fluoro-3-(2,7-diazaspiro[3.5]nonane-2-carbonyl)benzyl)phthalazin-1(2H)-one] | 1.42 | – | 68.5 | enzyme affinity in contrast to respective boc-protected analogue (PARP-1): slight increase in enzyme affinity |
| CC(C)(C)OC(=O)N1CCC2(CC1)CCN2C(=O)c1cc(Cc2n[nH]c(=O)c3ccccc23)ccc1F [Compound 13b, Tert-butyl 1-(2-fluoro-5-((4-oxo-3,4-dihydrophthalazin-1-yl)methyl)benzoyl)-1,7-diazaspiro[3.5]nonane-7-carboxylate] | 2.97 | ~23 | 33.2 | EC50 (MEF WT cells): 23.3 µM |
| CC(C)(C)OC(=O)N1CC2(CCN(C(=O)c3cc(Cc4n[nH]c(=O)c5ccccc45)ccc3F)C2)C1 [Compound 14b] | 1.19 | 29.2 | 31.8 | – |
| CC(C)(C)OC(=O)N1CCC2(C1)CN(C(=O)c1cc(Cc3n[nH]c(=O)c4ccccc34)ccc1F)C2 [Compound 14b] | – | – | – | IC50 (PARP-1): 1.19 µM |
| O=C(c1cc(Cc2n[nH]c(=O)c3ccccc23)ccc1F)N1CCC2(CNC2)C1 [Compound 14c, 4-(4-Fluoro-3-(2,6-diazaspiro[3.4]octane-6-carbonyl)benzyl)phthalazin-1(2H)-one] | 1.24 | – | – | – |
| O=C(c1cc(Cc2n[nH]c(=O)c3ccccc23)ccc1F)N1CCC2(CCNC2)C1 (stereo not shown) [Compound 15c, 4-(4-Fluoro-3-(2,7-diazaspiro[4.4]nonane-2-carbonyl)benzyl)phthalazin-1(2H)-one] | 1.12 | – | 512 | enzyme affinity in contrast to respective boc-protected analogue (PARP-1): slight increase in enzyme affinity |
| O=C(c1cc(Cc2n[nH]c(=O)c3ccccc23)ccc1F)N1CCC2(CCN(C(=O)C3CC3)C2)C1 (stereo not shown) [Compound 15d, 4-(3-(7-(Cyclopropanecarbonyl)-2,7-dizaspiro[4.4]nonane-2-carbonyl)-4-fluorobenzyl)phthalazin-1(2H)-one] | 2.59 | – | 70.9 | – |
| O=C(c1cc(Cc2n[nH]c(=O)c3ccccc23)ccc1F)N1CCC2(CCNCC2)C1 [Compound 16c, 4-(4-Fluoro-3-(2,8-diazaspiro[4.5]decane-2-carbonyl)benzyl)phthalazin-1(2H)-one] | 3.88 | – | – | – |

More lines, in order of falling EC50 (PARP-1), values ahead:

| EC50 (PARP-1) [µM] | SMILES | EC50 (MEF WT cells; Mus musculus) [µM] | EC50 ([1]; Mus musculus) [µM] | other results |
| --- | --- | --- | --- | --- |
| 0.552 | CC(C)(C)OC(=O)N1CC2(C1)CN(C(=O)c1cc(Cc3n[nH]c(=O)c4ccccc34)ccc1F)C2 [Compound 10c, Tert-butyl 6-(2-fluoro-5-((4-oxo-3,4-dihydrophthalazin-1-yl)methyl)benzoyl)-2,6-diazaspiro[3.3]heptane-2-carboxylate] | 31.1 | 24.7 | fold lower PARP-1 affinity compared to the methylene congener (PARP-1; 10c vs 10a, 15b vs 15a): ~16 fold; IC50 (PARP-1): 0.552 µM |
| 0.431 | O=C(C1CC1)N1CCC2(CC1)CCN2C(=O)c1cc(Cc2n[nH]c(=O)c3ccccc23)ccc1F [Compound 13d, 4-(3-(7-(Cyclopropanecarbonyl)-1,7-diazaspiro[3.5]nonane-1-carbonyl)-4-fluorobenzyl)phthalazin-1(2H)-one] | 47.5 | 44.4 | – |
| 0.284 ± 0.0012 | O=C(c1cc(Cc2n[nH]c(=O)c3ccccc23)ccc1F)N1CCC12CCCCC2 [Compound 13a, 4-(4-Fluoro-3-(1-azaspiro[3.5]nonane-1-carbonyl)benzyl)phthalazin-(2H)-one] | 32.6 | 78.8 | – |
| 0.234 | O=C(c1cc(Cc2n[nH]c(=O)c3ccccc23)ccc1F)N1CCC2(CCNCC2)CC1 [Compound 17c, 4-(4-Fluoro-3-(3,9-diazaspiro[5.5]undecane-3-carbonyl)benzyl)phthalazin-1(2H)-one] | – | 59.7 | enzyme affinity in contrast to respective boc-protected analogue (PARP-1): slight increase in enzyme affinity |
| 0.11 | O=C(c1cc(Cc2n[nH]c(=O)c3ccccc23)ccc1F)N1CCC12CCNCC2 [Compound 13c, 4-(4-Fluoro-3-(1,7-diazaspiro[3.5]nonane-1-carbonyl)benzyl)phthalazin-1(2H)-one] | – | 106 | fold improvement of PARP-1 affinity upon removing the boc-group (PARP-1; 13c vs 13b): ~29 fold; IC50 (PARP-1): 0.11 µM |
| 0.1 | O=C(c1cc(Cc2n[nH]c(=O)c3ccccc23)ccc1F)N1CC2(CCN(C(=O)C3CC3)CC2)C1 [Compound 12d, 4-(3-(7-(Cyclopropanecarbonyl)-2,7-diazaspiro[3.5]nonane-2-carbonyl)-4-fluorobenzyl)phthalazin-1(2H)-one] | 49.3 | 57.2 | – |
| 0.0741 | COC1CC(NC(=O)c2cc(Cc3n[nH]c(=O)c4ccccc34)ccc2F)C1 (stereo not shown) [Compound 18] | – | – | – |
| 0.0514 ± 0.0011 | O=C(c1cc(Cc2n[nH]c(=O)c3ccccc23)ccc1F)N1CCC2(CCCC2)C1 [Compound 15a, 4-(4-Fluoro-3-(2-azaspiro[4.4]nonane-2-carbonyl)benzyl)phthalazin-1(2H)-one] | 31.7 | 55.5 | – |
| 0.0339 ± 0.0015 | O=C(c1cc(Cc2n[nH]c(=O)c3ccccc23)ccc1F)N1CC2(CCC2)C1 [Compound 10a, 4-(4-Fluoro-3-(2-azaspiro[3.3]heptane-2-carbonyl)benzyl)phthalazin-1(2H)-one] | 48.3 | 49 | – |
| 0.0324 ± 0.0011 | O=C(c1cc(Cc2n[nH]c(=O)c3ccccc23)ccc1F)N1CCC2(CCC2)C1 [Compound 14a, 4-(4-Fluoro-3-(6-azaspiro[3.4]octane-6-carbonyl)benzyl)phthalazin-1(2H)-one] | 45.2 | 54.7 | – |
| 0.0249 | O=C(c1cc(Cc2n[nH]c(=O)c3ccccc23)ccc1F)N1CC2(COC2)C1 [Compound 10b, 4-(4-Fluoro-3-(2-oxa-6-azaspiro[3.3]heptane-6-carbonyl)benzyl)phthalazin-1(2H)-one] | 52.2 | 53.3 | IC50 (PARP-1): 0.0249 µM |
| 0.0126 | O=C(c1cc(Cc2n[nH]c(=O)c3ccccc23)ccc1F)N1CC2(C1)CN(C(=O)C1CC1)C2 [Compound 10e, 4-(3-(6-(Cyclopropanecarbonyl)-2,6-diazaspiro[3.3]heptane-2-carbonyl)-4-fluorobenzyl)phthalazin-1(2H)-one] | – | 59.8 | IC50 (PARP-1): 0.0126 µM |
| 0.0107 ± 0.0011 | O=C(c1cc(Cc2n[nH]c(=O)c3ccccc23)ccc1F)N1CC2(CC(OCCF)C2)C1 [Compound 37B, 4-(4-fluoro-3-(6-(2-fluoroethoxy)-2-azaspiro[3.3]heptane-2-carbonyl)benzyl)phthalazin-1(2H)-one] | – | – | – |
| 0.0028 | O=C(c1cc(Cc2n[nH]c(=O)c3ccccc23)ccc1F)N1CC2(CC(c3ccc(F)cc3)C2)C1 [Compound 39, 4-(4-fluoro-3-(6-(4-fluorophenyl)-2-azaspiro[3.3]heptane-2-carbonyl)benzyl)phthalazin-1(2H)-one] | – | – | – |
| 0.0013 | O=C(c1cc(Cc2n[nH]c(=O)c3ccccc23)ccc1F)N1CCC(c2ccc(F)cc2)CC1 [Compound 36, 4-(4-fluoro-3-(4-(4-fluorophenyl)piperidine-1-carbonyl)benzyl)phthalazin-1(2H)-one] | – | – | – |
